# Assay results: patent EP4644383A1 (Jiangsu Yahong Meditech Co., Ltd., priority 2022, dated 2024)
# Where two headings read alike, the source gives them in different places.
# Tests used:
# Type in all cases: biochemical
# FGFR1 = target: T1, FGFR1 (Homo sapiens, UniProt P11362); assay: FGFR1 kinase activity inhibition assay (LanthaScreen TR-FRET)
# T1 construct: cytoplasmic domain [398-822 (terminal) amino acids]; purchased Carna 08-133
# How it was run: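 Emission ratio 520 nm/495 nm by TR-FRET after stopping reaction with 10 mM EDTA and 60 min incubation at 22°C. Inhibition normalized between no-enzyme (min) and DMSO (max) controls, then fitted to a four-parameter curve (Top, Bottom, HillSlope).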
# FGFR2 = target: T2, FGFR2 (Homo sapiens, UniProt P21802); assay: FGFR2 kinase activity inhibition assay (LanthaScreen TR-FRET)
# T2 construct: FGFR2's cytoplasmic domain [399-821 (terminal) amino acids]; purchased Carna 08-134
# T2 sequence (P21802 399-821): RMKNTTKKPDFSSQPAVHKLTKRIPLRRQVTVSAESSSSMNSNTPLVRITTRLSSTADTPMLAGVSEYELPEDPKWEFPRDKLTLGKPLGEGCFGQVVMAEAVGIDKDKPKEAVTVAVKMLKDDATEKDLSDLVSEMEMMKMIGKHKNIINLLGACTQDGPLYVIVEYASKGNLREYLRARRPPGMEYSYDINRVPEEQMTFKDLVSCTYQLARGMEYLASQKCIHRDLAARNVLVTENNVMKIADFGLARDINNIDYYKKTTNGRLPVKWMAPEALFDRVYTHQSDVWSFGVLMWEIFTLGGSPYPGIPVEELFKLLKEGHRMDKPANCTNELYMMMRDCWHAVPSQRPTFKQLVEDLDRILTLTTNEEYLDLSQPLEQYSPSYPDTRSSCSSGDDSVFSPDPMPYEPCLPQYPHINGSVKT
# How it was run: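 GST-fused FGFR2 cytoplasmic domain (aa 399-821) was run as in the FGFR1 protocol: preincubated 10 min at 23 °C with compound (3-fold series from 1 µM) in 50 mM HEPES pH 7.5, 10 mM MgCl2, 4 mM DTT, 1% DMSO. A 2× mix of 28 nM fluorescein-poly GT/28 µM ATP then reacted 30 min. Tb-PY20/EDTA quench preceded the TR-FRET 520/495 read.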
# FGFR4 = target: T3, FGFR4 (Homo sapiens, UniProt P22455); assay: FGFR4 kinase activity inhibition assay (LanthaScreen TR-FRET)
# T3 construct: FGFR4's cytoplasmic domain [460-802 (terminal) amino acids]; purchased Carna 08-136
# T3 sequence (P22455 460-802): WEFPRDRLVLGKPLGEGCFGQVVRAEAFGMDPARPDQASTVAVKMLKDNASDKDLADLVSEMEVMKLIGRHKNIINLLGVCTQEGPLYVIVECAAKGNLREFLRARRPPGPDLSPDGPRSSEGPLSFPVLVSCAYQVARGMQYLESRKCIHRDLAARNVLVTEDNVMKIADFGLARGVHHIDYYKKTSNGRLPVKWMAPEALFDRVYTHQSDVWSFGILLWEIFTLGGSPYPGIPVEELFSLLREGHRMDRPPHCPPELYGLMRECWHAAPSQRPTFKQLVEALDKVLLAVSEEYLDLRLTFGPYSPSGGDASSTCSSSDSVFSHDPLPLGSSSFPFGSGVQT
# How it was run: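 GST-tagged cytoplasmic domains (FGFR2 aa 399-821; FGFR4 aa 460-802) were preincubated 10 min at 23 °C with compound (top 1 µM, threefold dilutions). Then 28 nM fluorescein-poly GT and 28 µM ATP were added for 30 min at 23 °C in HEPES pH 7.5 buffer. Tb-PY20 TR-FRET 520/495 ratio gave % inhibition versus DMSO and no-enzyme controls.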
# FGFR3 = target: T4, FGFR3 (Homo sapiens, UniProt P22607); assay: FGFR3 kinase activity inhibition assay (LanthaScreen TR-FRET); settings: for Selectivity (X) FGFR1/FGFR3: ratio of IC50 FGFR1/FGFR3, selectivity towards FGFR3; for Selectivity (X) FGFR2/FGFR3: ratio of IC50 FGFR2/FGFR3, selectivity towards FGFR3; for Selectivity (X) FGFR4/FGFR3: ratio of IC50 FGFR4/FGFR3, selectivity towards FGFR3
# T4 construct: FGFR3's cytoplasmic domain [436-806 (terminal) amino acids]; purchased Carna 08-135
# T4 sequence (P22607 436-806): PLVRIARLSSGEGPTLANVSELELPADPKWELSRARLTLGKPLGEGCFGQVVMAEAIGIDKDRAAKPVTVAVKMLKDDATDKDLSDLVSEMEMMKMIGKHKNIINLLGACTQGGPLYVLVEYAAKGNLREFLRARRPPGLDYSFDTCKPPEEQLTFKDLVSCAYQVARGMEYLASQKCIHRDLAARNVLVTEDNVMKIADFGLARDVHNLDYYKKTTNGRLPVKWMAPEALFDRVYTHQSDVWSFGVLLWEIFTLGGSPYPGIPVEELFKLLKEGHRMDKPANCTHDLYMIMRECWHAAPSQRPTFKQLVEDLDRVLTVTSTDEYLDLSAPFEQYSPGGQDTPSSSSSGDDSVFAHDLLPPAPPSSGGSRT
# How it was run: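 Read-out is TR-FRET, with the 520 nm/495 nm emission ratio normalised to DMSO (max) and enzyme-free (min) controls. Enzyme was the FGFR3 cytoplasmic domain, residues 436-806. EDTA (10 mM) stopped the reaction, followed by 60 min at 22 °C before reading.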
# [1] = FGFR1 kinase, TR-FRET, read-out: IC50 (nM) FGFR1
# [2] = FGFR2 kinase, TR-FRET, read-out: IC50 (nM) FGFR2
# [3] = FGFR4 kinase, TR-FRET, read-out: IC50 (nM) FGFR4
# [4] = FGFR3 kinase, TR-FRET, read-out: IC50 (nM) FGFR3
# T1 sequence (P11362 398-822): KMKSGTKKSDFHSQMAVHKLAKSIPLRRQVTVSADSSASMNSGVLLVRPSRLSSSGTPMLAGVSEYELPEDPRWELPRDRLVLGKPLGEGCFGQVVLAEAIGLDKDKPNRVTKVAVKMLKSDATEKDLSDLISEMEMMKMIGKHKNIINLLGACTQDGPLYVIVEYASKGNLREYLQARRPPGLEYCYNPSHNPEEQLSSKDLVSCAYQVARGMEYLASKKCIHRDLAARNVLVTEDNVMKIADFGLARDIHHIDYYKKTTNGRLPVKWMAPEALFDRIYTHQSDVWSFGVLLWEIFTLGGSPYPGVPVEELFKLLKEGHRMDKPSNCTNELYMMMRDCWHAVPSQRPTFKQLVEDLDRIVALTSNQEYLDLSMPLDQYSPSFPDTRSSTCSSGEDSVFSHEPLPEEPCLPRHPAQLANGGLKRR
IC50 (FGFR1; [1]) [nM],IC50 (FGFR2; [2]) [nM],IC50 (FGFR4; [3]) [nM],IC50 (FGFR3; [4]) [nM],Selectivity (X) FGFR1/FGFR3 (FGFR3),Selectivity (X) FGFR2/FGFR3 (FGFR3),Selectivity (X) FGFR4/FGFR3 (FGFR3),SMILES,IC50 (FGFR1) [nM],IC50 (FGFR2) [nM],IC50 (FGFR4) [nM],IC50 (FGFR3) [nM]
10 to 100,10 to 100,> 100,1 to 10,B (B represents 20 ≤ multiple X<50),A (A represents 1 ≤ multiple X<20),B (B represents 20 ≤ multiple X<50),"CC(Oc1ccc2[nH]nc(-c3cnn(C)c3)c2c1)c1c(C2CC2)ccc2ncccc12 (stereo not shown) [Example 116, 6-cyclopropyl-5-(1-((3-(1-methyl-1H-pyrazol-4-yl)-1H-indazol-5-yl)oxy)ethyl)qui noline]",–,–,–,–
10 to 100,1 to 10,10 to 100,1 to 10,B (B represents 20 ≤ multiple X<50),A (A represents 1 ≤ multiple X<20),B (B represents 20 ≤ multiple X<50),"CC(Oc1ccc2[nH]nc(-c3cnn(C)c3)c2c1)c1cccc2nnccc12 (stereo not shown) [Example 119, 5-(1-((3-(1-methyl-1H-pyrazol-4-yl)-1H-indazol-5-yl)oxy)ethyl)cinnoline]",–,–,–,–
10 to 100,1 to 10,10 to 100,< 1,B (B represents 20 ≤ multiple X<50),A (A represents 1 ≤ multiple X<20),B (B represents 20 ≤ multiple X<50),"[2H]C([2H])([2H])C(Oc1ccc2[nH]nc(-c3cnn(C)c3)c2c1)c1c(C)ccc2ncccc12 (stereo not shown) [Example 122, 6-methyl-5-(1-((3-(1-methyl-1H-pyrazol-4-yl)-1H-indazol-5-yl)oxy)ethyl-2,2,2-d3)quinoline]",–,–,–,–
10 to 100,1 to 10,10 to 100,< 1,B (B represents 20 ≤ multiple X<50),A (A represents 1 ≤ multiple X<20),B (B represents 20 ≤ multiple X<50),"CC(Oc1ccc2[nH]nc(-c3cnn(C)c3)c2c1)c1cc(F)cc2ncccc12 (stereo not shown) [Example 124, 7-fluoro-5-(1-((3-(1-methyl-1H-pyrazol-4-yl)-1H-indazol-5-yl)oxy)ethyl)qu inoline]",–,–,–,–
10 to 100,1 to 10,> 100,1 to 10,B (B represents 20 ≤ multiple X<50),A (A represents 1 ≤ multiple X<20),C (C represents 50 ≤ multiple X<100),"Cc1ccnc2cccc(C(C)Oc3ccc4[nH]nc(-c5cnn(C)c5)c4c3)c12 (stereo not shown) [Example 126, 4-methyl-5-(1-((3-(1-methyl-1H-pyrazol-4-yl)-1H-indazol-5-yl)oxy)ethyl)qu inoline]",–,–,–,–
10 to 100,1 to 10,10 to 100,< 1,B (B represents 20 ≤ multiple X<50),A (A represents 1 ≤ multiple X<20),B (B represents 20 ≤ multiple X<50),"CC(Oc1ccc2[nH]nc(-c3cnn(C)c3)c2c1)c1cccn2nccc12 (stereo not shown) [Example 132, 3-(1-methyl-1H-pyrazol-4-yl)-5-(1-(pyrazolo[1,5-a]pyridin-4-yl)ethoxy)-1H-indazole]",–,–,–,–
10 to 100,1 to 10,> 100,< 1,B (B represents 20 ≤ multiple X<50),A (A represents 1 ≤ multiple X<20),D (D represents 100 ≤ multiple X),"Cc1cc(C(C)Oc2ccc3[nH]nc(-c4cnn(C)c4)c3c2)c2cccnc2c1 (stereo not shown) [Example 133, 7-methyl-5-(1-((3-(1-methyl-1H-pyrazol-4-yl)-1H-indazol-5-yl)oxy)ethyl)qu inoline]",–,–,–,–
> 100,10 to 100,> 100,1 to 10,C (C represents 50 ≤ multiple X<100),A (A represents 1 ≤ multiple X<20),D (D represents 100 ≤ multiple X),"CC(Oc1ccc2[nH]nc(-c3cnn(C)c3)c2c1)c1cc(Cl)cc2ncccc12 (stereo not shown) [Example 134, 7-chloro-5-(1-((3-(1-methyl-1H-pyrazol-4-yl)-1H-indazol-5-yl)oxy)ethyl)qu inoline]",–,–,–,–
10 to 100,1 to 10,10 to 100,1 to 10,B (B represents 20 ≤ multiple X<50),A (A represents 1 ≤ multiple X<20),B (B represents 20 ≤ multiple X<50),"CC(Nc1ccc2[nH]nc(-c3cnn(C)c3)c2c1)c1cccc2nccnc12 (stereo not shown) [Example 135, 3-(1-methyl-1H-pyrazol-4-yl)-N-(1-(quinoxalin-5-yl)ethyl)-1H-indazole-5-amine]",–,–,–,–
10 to 100,1 to 10,10 to 100,< 1,C (C represents 50 ≤ multiple X<100),A (A represents 1 ≤ multiple X<20),C (C represents 50 ≤ multiple X<100),"CCc1cc(C(C)Oc2ccc3[nH]nc(-c4cnn(C)c4)c3c2)c2nccnc2c1 (stereo not shown) [Example 138, 7-ethyl-5-(1-((3-(1-methyl-1H-pyrazol-4-yl)-1H-indazol-5-yl)oxy)ethyl)quinoxaline]",–,–,–,–
1 to 10,1 to 10,10 to 100,< 1,A (A represents 1 ≤ multiple X<20),A (A represents 1 ≤ multiple X<20),B (B represents 20 ≤ multiple X<50),"Cc1cc(C(C)Oc2ccc3[nH]nc(-c4cnn(C)c4)c3c2)c2nccnc2c1 (stereo not shown) [Example 140, 7-methyl-5-(1-((3-(1-methyl-1H-pyrazol-4-yl)-1H-indazol-5-yl)oxy)ethyl)qu inoxaline]",–,–,–,–
1 to 10,1 to 10,10 to 100,< 1,A (A represents 1 ≤ multiple X<20),A (A represents 1 ≤ multiple X<20),B (B represents 20 ≤ multiple X<50),"CC(Oc1ccc2[nH]nc(-c3cnn(C)c3)c2c1)c1cc(F)cc2nccnc12 (stereo not shown) [Example 142, 7-fluoro-5-(1-((3-(1-methyl-1H-pyrazol-4-yl)-1H-indazol-5-yl)oxy)ethyl)qu inoxaline]",–,–,–,–
10 to 100,1 to 10,10 to 100,< 1,B (B represents 20 ≤ multiple X<50),A (A represents 1 ≤ multiple X<20),B (B represents 20 ≤ multiple X<50),"Cc1ccn2nccc2c1C(C)Oc1ccc2[nH]nc(-c3cnn(C)c3)c2c1 (stereo not shown) [Example 155, 3-(1-methyl-1H-pyrazol-4-yl)-5-(1-(5-methylpyrazolo [1,5-a]pyridin-4-yl)ethoxy)-1H-indazole]",–,–,–,–
10 to 100,1 to 10,10 to 100,1 to 10,A (A represents 1 ≤ multiple X<20),A (A represents 1 ≤ multiple X<20),A (A represents 1 ≤ multiple X<20),"CC(Oc1ccc2[nH]nc(-c3cnn(C)c3)c2c1)c1nccc2nccnc12 (stereo not shown) [Example 157, 5-(1-((3-(1-methyl-1H-pyrazol-4-yl)-1H-indazol-5-yl)oxy)ethyl)py ridino[3,4-b]pyrazine]",–,–,–,–
10 to 100,1 to 10,10 to 100,1 to 10,B (B represents 20 ≤ multiple X<50),A (A represents 1 ≤ multiple X<20),C (C represents 50 ≤ multiple X<100),"CC(Oc1ccc2[nH]nc(-c3cnn(C4CN(C)C4)c3)c2c1)c1cccc2nccnc12 (stereo not shown) [Example 158, 5-(1-((3-(1-(1-methylazetidin-3-yl)-1H-pyrazol-4-yl)-1H-indazol-5-yl)oxy)ethyl)q uinoxaline]",–,–,–,–

SMILES,IC50 (FGFR1; [1]) [nM],IC50 (FGFR2; [2]) [nM],IC50 (FGFR4; [3]) [nM],IC50 (FGFR3; [4]) [nM],Selectivity (X) FGFR1/FGFR3 (FGFR3),Selectivity (X) FGFR2/FGFR3 (FGFR3),Selectivity (X) FGFR4/FGFR3 (FGFR3),IC50 (FGFR1) [nM],IC50 (FGFR2) [nM],IC50 (FGFR4) [nM],IC50 (FGFR3) [nM]
"CC(Oc1ccc2[nH]nc(-c3cnn(C)c3)c2c1)c1c(CO)ccc2ncccc12 (stereo not shown) [Example 156, (5-(1-((3-(1-methyl-1H-pyrazol-4-yl)-1H-indazol-5-yl)oxy)ethyl)quinolin-6-yl)m ethano]",–,–,–,–,B (B represents 20 ≤ multiple X<50),A (A represents 1 ≤ multiple X<20),A (A represents 1 ≤ multiple X<20),10 to 100,1 to 10,10 to 100,1 to 10
